{"source": "patent US20100099561A1", "about": "“HETEROBICYCLIC ALKYLTHIO-BRIDGED ISOXAZOLINES” (E.I. DU PONT DE NEMOURS AND COMPANY, priority 2008, published 2010)", "format_in_all_cases": "in vivo", "key": {"[1]": {"system": "barnyardgrass (Echinochloa crus-galli)", "test": "Test A preemergence, barnyardgrass", "conditions": "0 to 100 scale (0 no effect, 100 complete control)", "method_in_brief": "(§1)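 Scores reflect visual plant injury on a 0 (no effect) to 100 (complete control) scale, assessed about ten days after application in the greenhouse. Compounds were delivered in a non-phytotoxic solvent blend with surfactant, either preemergence to soil or postemergence at one- to two-leaf stage.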"}, "[2]": {"system": "large crabgrass (Digitaria sanguinalis)", "test": "Test A preemergence, large crabgrass", "conditions": "0 to 100 scale (0 no effect, 100 complete control)", "method_in_brief": "as §1"}, "[3]": {"system": "giant foxtail (Setaria faberi)", "test": "Test A preemergence, giant foxtail", "conditions": "0 to 100 scale (0 no effect, 100 complete control)", "method_in_brief": "as §1"}, "[4]": {"system": "morningglory (Ipomoea spp.)", "test": "Test A preemergence, morningglory", "conditions": "0 to 100 scale (0 no effect, 100 complete control)", "method_in_brief": "as §1"}, "[5]": {"system": "pigweed (Amaranthus retroflexus)", "test": "Test A preemergence, pigweed", "conditions": "0 to 100 scale (0 no effect, 100 complete control)", "method_in_brief": "as §1"}, "[6]": {"system": "velvetleaf (Abutilon theophrasti)", "test": "Test A preemergence, velvetleaf", "conditions": "0 to 100 scale (0 no effect, 100 complete control)", "method_in_brief": "as §1"}, "[7]": {"system": "wheat (Triticum aestivum)", "test": "Test A preemergence, wheat", "conditions": "0 to 100 scale (0 no effect, 100 complete control)", "method_in_brief": "as §1"}, "corn (Zea mays) [8]": {"system": "corn (Zea mays)", "test": "Test A preemergence, corn", "conditions": "0 to 100 scale (0 no effect, 100 complete control)", "method_in_brief": "as §1"}, "[9]": {"system": "barnyardgrass (Echinochloa crus-galli)", "test": "Test A postemergence, barnyardgrass", "conditions": "0 to 100 scale (0 no effect, 100 complete control)", "method_in_brief": "as §1"}, "[10]": {"system": "large crabgrass (Digitaria sanguinalis)", "test": "Test A postemergence, large crabgrass", "conditions": "0 to 100 scale (0 no effect, 100 complete control)", "method_in_brief": "as §1"}, "[11]": {"system": "giant foxtail (Setaria faberi)", "test": "Test A postemergence, giant foxtail", "conditions": "0 to 100 scale (0 no effect, 100 complete control)", "method_in_brief": "as §1"}, "[12]": {"system": "morningglory (Ipomoea spp.)", "test": "Test A postemergence, morningglory", "conditions": "0 to 100 scale (0 no effect, 100 complete control)", "method_in_brief": "as §1"}, "[13]": {"system": "pigweed (Amaranthus retroflexus)", "test": "Test A postemergence, pigweed", "conditions": "0 to 100 scale (0 no effect, 100 complete control)", "method_in_brief": "as §1"}, "[14]": {"system": "velvetleaf (Abutilon theophrasti)", "test": "Test A postemergence, velvetleaf", "conditions": "0 to 100 scale (0 no effect, 100 complete control)", "method_in_brief": "as §1"}, "[15]": {"system": "wheat (Triticum aestivum)", "test": "Test A postemergence, wheat", "conditions": "0 to 100 scale (0 no effect, 100 complete control)", "method_in_brief": "as §1"}, "corn (Zea mays) [16]": {"system": "corn (Zea mays)", "test": "Test A postemergence, corn", "conditions": "0 to 100 scale (0 no effect, 100 complete control)", "method_in_brief": "as §1"}, "rice (Oryza sativa)": {"system": "rice (Oryza sativa)", "test": "Test B flooded paddy test, rice", "conditions": "Flood, scale 0 to 100", "method_in_brief": "(§2)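 Compounds were added directly to paddy water over 2-leaf-stage plants in pots flooded 3 cm above soil, water depth maintained. Visual injury scored against controls after 13 to 15 days in greenhouse, 0 (none) to 100 (complete control); dash indicates no result.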"}, "[17]": {"system": "umbrella sedge (Cyperus difformis)", "test": "Test B flooded paddy test, umbrella sedge", "conditions": "Flood, scale 0 to 100", "method_in_brief": "as §2"}, "[18]": {"system": "ducksalad (Heteranthera limosa)", "test": "Test B flooded paddy test, ducksalad", "conditions": "Flood, scale 0 to 100", "method_in_brief": "as §2"}, "[19]": {"system": "barnyardgrass (Echinochloa crus-galli)", "test": "Test B flooded paddy test, barnyardgrass", "conditions": "Flood", "method_in_brief": "as §2"}, "[20]": {"conditions": "250 g ai/ha, scale 0 to 100 (0 no effect, 100 complete control)"}}, "data": [{"smiles": "CC1(C)CC(S(=O)(=O)Cc2c(C(F)(F)F)nc3cnccn3c2=O)=NO1", "note": "[Compound 52]", "values": [{"measurement": "Plant response rating, Barnyardgrass", "setting": "[1]; 125 g ai/ha", "result": 20}, {"measurement": "Plant response rating, Barnyardgrass", "setting": "[1]; 500 g ai/ha", "result": 80}, {"measurement": "Plant response rating, Crabgrass, Large", "setting": "[2]; 125 g ai/ha", "result": 20}, {"measurement": "Plant response rating, Crabgrass, Large", "setting": "[2]; 500 g ai/ha", "result": 80}, {"measurement": "Plant response rating, Foxtail, Giant", "setting": "[3]; 125 g ai/ha", "result": 40}, {"measurement": "Plant response rating, Foxtail, Giant", "setting": "[3]; 500 g ai/ha", "result": 90}, {"measurement": "Plant response rating, Morningglory", "setting": "[4]; 125 g ai/ha", "result": 0}, {"measurement": "Plant response rating, Morningglory", "setting": "[4]; 500 g ai/ha", "result": 0}, {"measurement": "Plant response rating, Pigweed", "setting": "[5]; 125 g ai/ha", "result": 0}, {"measurement": "Plant response rating, Pigweed", "setting": "[5]; 500 g ai/ha", "result": 0}, {"measurement": "Plant response rating, Velvetleaf", "setting": "[6]; 125 g ai/ha", "result": 0}, {"measurement": "Plant response rating, Velvetleaf", "setting": "[6]; 500 g ai/ha", "result": 0}, {"measurement": "Plant response rating, Wheat", "setting": "[7]; 125 g ai/ha", "result": 0}, {"measurement": "Plant response rating, Wheat", "setting": "[7]; 500 g ai/ha", "result": 0}, {"measurement": "Plant response rating, Corn", "setting": "corn (Zea mays) [8]; 125 g ai/ha", "result": 0}, {"measurement": "Plant response rating, Corn", "setting": "corn (Zea mays) [8]; 500 g ai/ha", "result": 0}, {"measurement": "Plant response rating, Barnyardgrass", "setting": "[9]; 125 g ai/ha", "result": 30}, {"measurement": "Plant response rating, Barnyardgrass", "setting": "[9]; 500 g ai/ha", "result": 90}, {"measurement": "Plant response rating, Crabgrass, Large", "setting": "[10]; 125 g ai/ha", "result": 20}, {"measurement": "Plant response rating, Crabgrass, Large", "setting": "[10]; 500 g ai/ha", "result": 50}, {"measurement": "Plant response rating, Foxtail, Giant", "setting": "[11]; 125 g ai/ha", "result": 60}, {"measurement": "Plant response rating, Foxtail, Giant", "setting": "[11]; 500 g ai/ha", "result": 80}, {"measurement": "Plant response rating, Morningglory", "setting": "[12]; 125 g ai/ha", "result": 0}, {"measurement": "Plant response rating, Morningglory", "setting": "[12]; 500 g ai/ha", "result": 30}, {"measurement": "Plant response rating, Pigweed", "setting": "[13]; 125 g ai/ha", "result": 0}, {"measurement": "Plant response rating, Pigweed", "setting": "[13]; 500 g ai/ha", "result": 0}, {"measurement": "Plant response rating, Velvetleaf", "setting": "[14]; 125 g ai/ha", "result": 0}, {"measurement": "Plant response rating, Velvetleaf", "setting": "[14]; 500 g ai/ha", "result": 0}, {"measurement": "Plant response rating, Wheat", "setting": "[15]; 125 g ai/ha", "result": 0}, {"measurement": "Plant response rating, Wheat", "setting": "[15]; 500 g ai/ha", "result": 30}, {"measurement": "Plant response rating, Corn", "setting": "corn (Zea mays) [16]; 125 g ai/ha", "result": 0}, {"measurement": "Plant response rating, Corn", "setting": "corn (Zea mays) [16]; 500 g ai/ha", "result": 0}, {"measurement": "Plant response rating, Rice", "setting": "rice (Oryza sativa); 62 g ai/ha", "result": 0}, {"measurement": "Plant response rating, Rice", "setting": "rice (Oryza sativa); 250 g ai/ha", "result": 0}, {"measurement": "Plant response rating, Sedge, Umbrella", "setting": "[17]; 62 g ai/ha", "result": 0}, {"measurement": "Plant response rating, Sedge, Umbrella", "setting": "[17]; 250 g ai/ha", "result": 0}, {"measurement": "Plant response rating, Ducksalad", "setting": "[18]; 62 g ai/ha", "result": 0}, {"measurement": "Plant response rating, Ducksalad", "setting": "[18]; 250 g ai/ha", "result": 0}, {"measurement": "Plant response rating, Barnyardgrass", "setting": "[19]; 62 g ai/ha, scale 0 to 100", "result": 0}, {"measurement": "Plant response rating, Barnyardgrass", "setting": "[19]; [20]", "result": 0}]}, {"smiles": "Cc1cc2nc(C(F)(F)F)c(CS(=O)(=O)C3=NOC(C)(C)C3)c(=O)n2o1", "note": "[Compound 53]", "values": [{"measurement": "Plant response rating, Barnyardgrass", "setting": "[1]; 125 g ai/ha", "result": 30}, {"measurement": "Plant response rating, Barnyardgrass", "setting": "[1]; 500 g ai/ha", "result": 90}, {"measurement": "Plant response rating, Crabgrass, Large", "setting": "[2]; 125 g ai/ha", "result": 30}, {"measurement": "Plant response rating, Crabgrass, Large", "setting": "[2]; 500 g ai/ha", "result": 90}, {"measurement": "Plant response rating, Foxtail, Giant", "setting": "[3]; 125 g ai/ha", "result": 30}, {"measurement": "Plant response rating, Foxtail, Giant", "setting": "[3]; 500 g ai/ha", "result": 90}, {"measurement": "Plant response rating, Morningglory", "setting": "[4]; 125 g ai/ha", "result": 0}, {"measurement": "Plant response rating, Pigweed", "setting": "[5]; 125 g ai/ha", "result": 0}, {"measurement": "Plant response rating, Pigweed", "setting": "[5]; 500 g ai/ha", "result": 0}, {"measurement": "Plant response rating, Velvetleaf", "setting": "[6]; 125 g ai/ha", "result": 0}, {"measurement": "Plant response rating, Velvetleaf", "setting": "[6]; 500 g ai/ha", "result": 0}, {"measurement": "Plant response rating, Wheat", "setting": "[7]; 125 g ai/ha", "result": 0}, {"measurement": "Plant response rating, Wheat", "setting": "[7]; 500 g ai/ha", "result": 0}, {"measurement": "Plant response rating, Corn", "setting": "corn (Zea mays) [8]; 125 g ai/ha", "result": 0}, {"measurement": "Plant response rating, Corn", "setting": "corn (Zea mays) [8]; 500 g ai/ha", "result": 0}, {"measurement": "Plant response rating, Barnyardgrass", "setting": "[9]; 125 g ai/ha", "result": 50}, {"measurement": "Plant response rating, Barnyardgrass", "setting": "[9]; 500 g ai/ha", "result": 90}, {"measurement": "Plant response rating, Crabgrass, Large", "setting": "[10]; 125 g ai/ha", "result": 30}, {"measurement": "Plant response rating, Crabgrass, Large", "setting": "[10]; 500 g ai/ha", "result": 80}, {"measurement": "Plant response rating, Foxtail, Giant", "setting": "[11]; 125 g ai/ha", "result": 60}, {"measurement": "Plant response rating, Foxtail, Giant", "setting": "[11]; 500 g ai/ha", "result": 80}, {"measurement": "Plant response rating, Morningglory", "setting": "[12]; 125 g ai/ha", "result": 0}, {"measurement": "Plant response rating, Morningglory", "setting": "[12]; 500 g ai/ha", "result": 10}, {"measurement": "Plant response rating, Pigweed", "setting": "[13]; 125 g ai/ha", "result": 0}, {"measurement": "Plant response rating, Pigweed", "setting": "[13]; 500 g ai/ha", "result": 0}, {"measurement": "Plant response rating, Velvetleaf", "setting": "[14]; 125 g ai/ha", "result": 0}, {"measurement": "Plant response rating, Velvetleaf", "setting": "[14]; 500 g ai/ha", "result": 0}, {"measurement": "Plant response rating, Wheat", "setting": "[15]; 125 g ai/ha", "result": 0}, {"measurement": "Plant response rating, Wheat", "setting": "[15]; 500 g ai/ha", "result": 20}, {"measurement": "Plant response rating, Corn", "setting": "corn (Zea mays) [16]; 125 g ai/ha", "result": 0}, {"measurement": "Plant response rating, Corn", "setting": "corn (Zea mays) [16]; 500 g ai/ha", "result": 0}, {"measurement": "Plant response rating, Rice", "setting": "rice (Oryza sativa); 62 g ai/ha", "result": 0}, {"measurement": "Plant response rating, Rice", "setting": "rice (Oryza sativa); 250 g ai/ha", "result": 0}, {"measurement": "Plant response rating, Sedge, Umbrella", "setting": "[17]; 62 g ai/ha", "result": 0}, {"measurement": "Plant response rating, Sedge, Umbrella", "setting": "[17]; 250 g ai/ha", "result": 0}, {"measurement": "Plant response rating, Ducksalad", "setting": "[18]; 62 g ai/ha", "result": 0}, {"measurement": "Plant response rating, Ducksalad", "setting": "[18]; 250 g ai/ha", "result": 0}, {"measurement": "Plant response rating, Barnyardgrass", "setting": "[19]; 62 g ai/ha, scale 0 to 100", "result": 0}, {"measurement": "Plant response rating, Barnyardgrass", "setting": "[19]; [20]", "result": 0}]}]}
